Experimental data reported in patent US9352010B2, “Treatment of HIV-1 infection and AIDS” (The J. David Gladstone Institutes, priority 2011, dated 2016).
Entries after “also recorded” stand apart in the source; their conditions may differ.

Experiments:
[1] = tested on: CFSE-labeled spleen CD4 T-cells; assay: Indirect killing assay with CFSE-labeled human spleen cells; type: cell-based; conditions: for loss of CFSE-labeled spleen CD4 T-cells: HIV-infected spleen HLAC effectors; for loss of resting CFSE-labeled spleen CD4 T-cells: HIV-infected tonsil effector cells
Experimental: (B and C) Fresh human spleen from a single donor were processed into HLAC and assessed in indirect cell killing assay as described in FIG. 2A. Effector spleen HLAC were stimulated with PHA and IL-2 48 hours before mixing, but not during co-culturing with CFSE-labeled cells. Non-activated resting CFSE-labeled spleen cells were co-cultured with NL4-3-infected or uninfected effector cells in the presence or absence of the following drugs, AZT (5 μM), AMD3100 (250 nM), Efavirenz (100 nM), or Raltegravir (30 μM), as indicated. […] Percentages were normalized to the number of viable CFSE-positive spleen CD4 T-cells co-cultured with uninfected effectors in the presence of AZT, as depicted by (*). Error bars represent standard error of the mean for three experiments performed with three different spleen and tonsil donors.
Human tonsil or splenic tissues from routine tonsillectomies were obtained from the National Disease Research Interchange and the Cooperative Human Tissue Network and processed as previously described (Jekle et al., 2003, J Virol 77:5846-5854). In brief, tonsils or spleen were minced, passed through a 40-μm cell strainer, and cultured in 96-well U-bottomed polystyrene plates (2×10^6 cells/well) in medium (200 μl/well) consisting of RPMI 1640 supplemented with 15% heat-inactivated fetal bovine serum, 100 μg/ml gentamicin, 200 μg/ml ampicillin, 1 mM sodium pyruvate, 1% nonessential amino acids (Mediatech), 2 mM L-glutamine, and 1% fungizone (Invitrogen). All HIV-1 infections were carried out with 20-50 ng of HIV-1 p24^gag. Cells were incubated with the virus for 12-16 h, washed extensively, and supplemented with fresh medium. After day 5, infections were monitored by measuring p24gag levels in the culture medium using a FLAQ assay (Hayden et al., 2003, AIDS 17:629-631). Infected and uninfected cultures were manipulated as described for individual experiments. In “indirect killing” assays, unless otherwise stated, drugs were used at the following concentrations: 5 μM AZT; 250 nM AMD3100; 10 μg/ml T20; 100 nM Efavirenz; 1 μM Nevirapine; 30 μM Raltegravir; 60 μM 118-D-24; 5 μM Amprenavir; 5 μM Saquinavir; 5 μM Indinavir. CFSE-labeled cells were activated with PHA (5 μg/ml) and IL-2 (20 ng/ml) 2 days before mixing with effector cells.
Uninfected cells (5×10^6/ml) were labeled with 1 μM CFSE (Molecular Probes C1157), treated with 5 μM AZT for 24 h, and co-cultured with effector cells. CFSE readily diffuses into cells, where intracellular esterases cleave the acetate groups, converting it to a fluorescent, membrane-impermeable dye. […] To quantify indirect killing, mixed (CFSE-labeled+effector) cultures were washed in FACS buffer (PBS supplemented with 2 mM EDTA and 2% fetal bovine serum), stained with PE-conjugated anti-CD4, PerCP-conjugated anti-CD19, and APC-conjugated anti-CD8 (all from BD Pharmingen) and fixed in 1% paraformaldehyde. To determine the absolute numbers of the viable CFSE-labeled cells, a standard number of fluorescent beads (Flow-Count Fluorospheres, Beckman Coulter) was added to each cell-suspension sample before data acquisition. Data were collected on a FACS Calibur (BD Biosciences) and analyzed with Flowjo software (Treestar). The level of indirect killing was defined by sequential gating beginning with forward scatter versus side scatter to select live lymphocytes, subgating on the CFSE-positive population, and calculating the numbers of CD4 or CD8 T or B cells, divided by the number of fluorescent beads acquired.

IL-1β = assay: Maturation and secretion of IL-1β in abortively infected tonsillar CD4 T-cells (Western blot); type: cell-based, human; conditions: AZT 5 μM, AMD3100 250 nM, efavirenz 100 nM
Experimental: For assessing the processing and secretion of IL-1β in abortively infected CD4 T-cells, CD4 T-cells were isolated from HLACs as described above, and were spinoculated with or without NL4-3 with the indicated drugs as describes above in vi (Spinoculation) and in FIG. 7B. For intracellular protein analysis, cells were lysed 72 hours after spinoculation in RIPA buffer (150 mM NaCl, 1% Nonidet P-40 (vol/vol), 0.5% […] (vol/vol), 0.1% SDS (vol/vol), 50 mM Tris-HCl (pH 8), 1 mM DTT), and EDTA-free Protease Inhibitor (Roche Applied Science, Cat. #04 693 132 001). For analysis of secreted IL-1β, supernatants (200 μl/1 million cells) from the rest of the CD4 T-cells were collected five days after spinoculation and analyzed using Western blot. For Western blots we used the Bio-Rad Criterion 15% pre-cast Tris-HCl gels. Primary antibodies used were 1/1000 of the mouse monoclonal anti-human IL-1β (R&D Systems, Cat. # MAB201) and 1/10000 of the mouse monoclonal anti-β-Actin (Sigma, Cat. # A5316).

[2] = tested on: HIV-1 reverse transcription products; assay: Taqman QPCR of HIV-1 reverse transcription products in infected CD4 T-cells; type: cell-based, human; conditions: 16 hours after infection with NL4-3, versus untreated cells
Experimental: Fresh HLACs were washed once with PBS and resuspended with PBS containing 5 mM EDTA and 2% fetal bovine serum. CD4 T-cells were isolated from HLACs by positive selection on CD4 microbeads (Miltenyi) and cultured overnight in 96-well U-bottomed plates (1×10^6 cells/well) as described above, and AZT was added to the indicated cell samples. Next day, the rest of the drugs were added to the indicated cell samples at concentrations as described above. Cells were chilled on ice for 15 min and DNAse-treated (Ambion, 60 U/ml, 1 hour, 37° C.) NL4-3 or Δvif NL4-3 virions (200 ng/well) were added. After a 1 hour incubation with virions on ice, cells were spinoculated at 1200 g for 2 hours at 4° C., incubated at 37° C. for 2 hours, washed three times with cold PBS, and resuspended in fresh RPMI with the indicated drugs. Eight or 16 hours after spinoculation, cell pellets were frozen at −80° C. Total DNA was purified from each cell pellet with a DNAse kit (Qiagen). Primer and probe sequences used to detect reverse transcription products are provided herein. QPCR reactions were performed in triplicates in TaqMan universal PCR master mix using each primer at 3.75 μM and probe at 2.5 μM. After 15 minutes at 95° C., reactions underwent 50 cycles of 15 sec at 95° C. followed by 1 min at 60° C. in an ABI Prism 7900HT (Applied Biosystems).
Next the status of HIV-1 reverse transcription in tonsillar CD4 T-cells after infection was examined. […] Taqman-based quantitative real-time PCR (QPCR) was used to quantify the synthesis of reverse transcription products in isolated CD4 T-cells from HLAC 16 hours after infection with NL4-3. Specific QPCR primers and probes were designed (Table 1) to monitor sequential steps in reverse transcription including generation of strong-stop DNA, first template exchange (Nef), and DNA strand elongation (Env) (FIG. 10A)

c1cc(CN2CCCNCCNCCCNCC2)ccc1CN1CCCNCCNCCCNCC1 [AMD3100]
loss of CFSE-labeled spleen CD4 T-cells [1]: prevented the loss of CD4 T-cells as efficiently as AMD3100 | maturation and release of bioactive 17 kDa IL-1β after NL4-3 infection (IL-1β): completely prevented; also recorded: blocked | reverse transcription products corresponding to strong-stop DNA [2]: greatly reduced

Cc1cn([C@H]2C[C@H](N=[N+]=[N-])[C@@H](CO)O2)c(=O)[nH]c1=O [AZT]
loss of CFSE-labeled spleen CD4 T-cells [1]: robust in the absence of drugs or in the presence of AZT | loss of resting CFSE-labeled spleen CD4 T-cells [1]: massively depleted | maturation and release of bioactive 17 kDa IL-1β after NL4-3 infection (IL-1β): similarly resulted in maturation and release of the bioactive 17 kDa IL-1β; also recorded: also resulted in release of bioactive 17-kDa IL-1β | reverse transcription products corresponding to strong-stop DNA [2]: similar

O=C1Nc2ccc(Cl)cc2[C@@](C#CC2CC2)(C(F)(F)F)O1 [efavirenz]
loss of CFSE-labeled spleen CD4 T-cells [1]: prevented the loss of CD4 T-cells as efficiently as AMD3100 | loss of resting CFSE-labeled spleen CD4 T-cells [1]: prevented this loss of CD4 T-cells | maturation and release of bioactive 17 kDa IL-1β after NL4-3 infection (IL-1β): completely prevented; also recorded: blocked
